# Assay results as given in article PMC11497331 (Glia, 2021).
# Tested on: primary microglia from wild-type (WT) mice
# Format: cell-based
smiles,measurement,value
"C=C1[C@@H](C)[C@H]2[C@H](Cc3ccccc3)NC(=O)[C@]23[C@H](OC(C)=O)/C=C/[C@@](C)(O)C(=O)[C@@H](C)C/C=C/[C@H]3[C@@H]1O [cytochalasin D, Cytochalasin D]",effect of cytochalasin D on Aβ uptake,reduced
